Source: the supplement of paper PMC4858399
Counter-ions that a name gives are not always drawn.

Key:
Details in all cases: exposure time 48 h
[1] = system: Caenorhabditis elegans N2; assay: mean nematode size ln(EXT) after 48 h, plate-adjusted (DMSO control set to 6) (ln(EXT), control-adjusted); higher = larger nematodes / less growth inhibition
Method in brief: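 In K-medium with killed OP50, 1% DMSO and 0.5–200 µM chemical, synchronised N2 L1 larvae of C. elegans (50 per well) grew for 48 h at 20°C. Extinction was read for every worm on the Biosort, with debris removed by a growth model. Natural-log values averaged per well gave mean size, which was corrected per plate by subtracting the vehicle control mean and adding 6.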

[2] = system: Caenorhabditis elegans N2; assay: AC50 for larval growth inhibition (Hill fit); higher = less potent
Method in brief: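 C. elegans N2 L1 larvae, synchronised and plated at 50 per well in 96-well plates, were exposed for 48 h at 20°C to 0.5–200 µM chemical in K-medium with killed OP50 and 1% DMSO. Log-transformed extinction from a COPAS Biosort served as worm size, averaged per well. Wells containing at least 10 worms entered the fit. A constrained Hill fit by weighted genetic-algorithm regression yielded the AC50, censored when out of range.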

[3] = system: Caenorhabditis elegans N2; assay: lowest effective concentration for larval growth inhibition (size below effect threshold); higher = less potent
Method in brief: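 Log-transformed well means of per-worm extinction, read as size on a Biosort, came from 50 C. elegans N2 L1 larvae per 96-well grown 48 h at 20°C in K-medium with killed bacteria, 1% DMSO and 0.5 to 200 µM chemical. The lowest effective concentration is the first dose at which the plate-adjusted mean size is below the threshold and stays below it at every higher dose. The threshold is 5.665.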

Row | SMILES | mean nematode size ln(EXT) (ln) ([1]; 0.5 µM) | mean nematode size ln(EXT) (ln) ([1]; 1 µM) | mean nematode size ln(EXT) (ln) ([1]; 5 µM) | mean nematode size ln(EXT) (ln) ([1]; 10 µM) | mean nematode size ln(EXT) (ln) ([1]; 50 µM) | mean nematode size ln(EXT) (ln) ([1]; 100 µM) | mean nematode size ln(EXT) (ln) ([1]; 200 µM) | AC50 for larval growth inhibition [2] | lowest effective concentration [3]
1 | COC(=O)N(C(=O)N1CO[C@@]2(C(=O)OC)Cc3cc(Cl)ccc3C2=N1)c1ccc(OC(F)(F)F)cc1 [Indoxacarb] | 6 | 5.91 | 5.25 | 4.02 | 3.6 | 3.56 | 3.48 | 6.41 µM | 5 µM
2 | O=C(N[C@@H](Cc1ccccc1)[C@@H](O)C(=O)N1C[C@@H](O)[C@@H](O)C1)c1cc2cc(Cl)ccc2[nH]1 [Ingliforib] | 5.94 | 5.79 | 5.75 | 5.85 | 5.79 | 5.46 | 5.44 | > 200 µM | 100 µM
3 | CC(C)NC(=O)N1CC(=O)N(c2cc(Cl)cc(Cl)c2)C1=O [Iprodione] | 5.99 | 5.95 | 5.85 | 6.06 | 5.87 | 5.8 | 5.4 | > 200 µM | 200 µM
4 | CCOP(=S)(OCC)Oc1nc(Cl)n(C(C)C)n1 [Isazofos] | 4.88 | 5.05 | 4.5 | 4.43 | 3.8 | 3.59 | 3.78 | 3.38 µM | ≤ 0.5 µM
5 | C=CC(=O)OCCCCCC(C)C [Isooctyl acrylate] | 5.42 | 5.47 | 5.59 | 5.64 | 5.7 | 5.68 | 5.52 | > 200 µM | 200 µM
6 | O=C(O)c1cccc(C(=O)O)c1 [Isophthalic acid] | 5.93 | 5.83 | 5.85 | 5.87 | 5.8 | 5.82 | 4.8 | > 200 µM | 200 µM
7 | CCCN(CCC)c1c([N+](=O)[O-])cc(C(C)C)cc1[N+](=O)[O-] [Isopropalin] | 5.89 | 5.9 | 5.87 | 5.73 | 5.47 | 5.14 | 4.96 | > 200 µM | 50 µM
8 | CS(=O)(=O)c1cc(C(F)(F)F)ccc1C(=O)c1cnoc1C1CC1 [Isoxaflutole] | 6.11 | 6.29 | 6.22 | 6.31 | 6.07 | 6.15 | 5.61 | > 200 µM | 200 µM
9 | O=C1C2(Cl)C3(Cl)C4(Cl)C(Cl)(Cl)C5(Cl)C3(Cl)C1(Cl)C5(Cl)C24Cl (configuration not stated) [Kepone (Chlordecone)] | 5.67 | 5.53 | 4.74 | 4.04 | 3.69 | 3.63 | 4.06 | 3.31 µM | 1 µM
10 | CC(=O)N1CCN(c2ccc(OCC3COC(Cn4ccnc4)(c4ccc(Cl)cc4Cl)O3)cc2)CC1 (configuration not stated) [Ketoconazole] | 6 | 5.74 | 5.8 | 5.62 | 5.3 | 4.28 | 3.53 | 85.2 µM | 10 µM
11 | CCOC(=O)C(C)OC(=O)c1cc(Oc2ccc(C(F)(F)F)cc2Cl)ccc1[N+](=O)[O-] (configuration not stated) [Lactofen] | 5.89 | 5.94 | 5.8 | 5.86 | 5.24 | 5.25 | 4.89 | 138 µM | 50 µM
12 | Cl[C@H]1[C@H](Cl)[C@@H](Cl)[C@@H](Cl)[C@H](Cl)[C@H]1Cl [Lindane] | 5.77 | 5.98 | 5.79 | 5.94 | 5.42 | 5.2 | 4.35 | 175 µM | 50 µM
13 | CON(C)C(=O)Nc1ccc(Cl)c(Cl)c1 [Linuron] | 6.04 | 6.22 | 6.19 | 5.98 | 6.16 | 5.57 | 4.43 | 104 µM | 100 µM
14 | CC[C@H](C)C(=O)O[C@H]1C[C@@H](C)C=C2C=C[C@H](C)[C@H](CC[C@@H]3C[C@@H](O)CC(=O)O3)[C@H]21 [Lovastatin] | 5.85 | 5.83 | 5.8 | 5.83 | 5.65 | 5.23 | 5.06 | > 200 µM | 50 µM
15 | CCOC(=O)CC(SP(=S)(OC)OC)C(=O)OCC (configuration not stated) [Malathion] | 5.93 | 6.01 | 5.79 | 5.98 | 5.8 | 5.59 | 5.28 | > 200 µM | 100 µM
16 | S=C([S-])NCCNC(=S)[S-].S=C([S-])NCCNC(=S)[S-].[Mn+2].[Zn+2] [Mancozeb] | 5.79 | 5.84 | 5.84 | 5.85 | 5.83 | 5.7 | 5.39 | > 200 µM | 200 µM
17 | S=C([S-])NCCNC(=S)[S-].[Mn+2] [Maneb] | 5.91 | 5.98 | 6.05 | 5.98 | 5.9 | 5.83 | 5.52 | > 200 µM | 200 µM
18 | CC#Cc1cc(C)nc(Nc2ccccc2)n1 [Mepanipyrim] | 5.81 | 5.81 | 5.8 | 5.84 | 5.7 | 5.75 | 5.21 | > 200 µM | 200 µM
19 | [Cl][Hg][Cl] [Mercuric chloride] | 5.91 | 5.84 | 5.47 | 4.41 | 3.59 | 3.72 | 3.64 | 7.77 µM | 5 µM
20 | CS(=O)(=O)c1ccc(C(=O)C2C(=O)CCCC2=O)c([N+](=O)[O-])c1 [Mesotrione] | 5.87 | 5.92 | 5.92 | 6.03 | 5.9 | 5.68 | 5.41 | 107 µM | 200 µM
21 | CNC(=S)S [Metam-sodium hydrate] | 6.25 | 6.2 | 6.21 | 6.3 | 6.43 | 6.13 | 5.52 | 191 µM | 200 µM
22 | CCC(=O)C(CC(C)N(C)C)(c1ccccc1)c1ccccc1 (configuration not stated) [Methadone Hydrochloride] | 5.87 | 5.81 | 5.87 | 5.88 | 5.7 | 5.81 | 5.54 | > 200 µM | 200 µM
23 | COc1nn(CSP(=S)(OC)OC)c(=O)s1 [Methidathion] | 5.74 | 5.62 | 5.48 | 5.52 | 5.57 | 5.38 | 4.52 | > 200 µM | 1 µM
